These results are taken from patent EP3685668B1, “COMPOSITION COMPRISING ACIBENZOLAR-S-METHYL AS EFFECTIVE INGREDIENT FOR CONTROLLING BURSAPHELENCHUS XYLOPHILUS DISEASE AND METHOD FOR CONTROLLING BURSAPHELENCHUS XYLOPHILUS USING SAME” (Industry Foundation of Chonnam National University, priority 2017, dated 2019).

Assay [1] deals with Bursaphelenchus xylophilus. Put plainly: Occurrence of pine wilt disease after trunk injection of induced resistance candidate materials, in vivo test in young red pine trees. Conditions: red pine tree (Pinus densiflora), trunk injection 100 µℓ per tree, 30 days after inoculation. As to the method:
By using the 15 types of an induced resistance elicitors which have been known to induce the plant resistance against various diseases as candidates, their controlling effect against pine wilt disease was examined. The control efficacy of candidates against pine wilt disease was analyzed according to an in vivo test using red pine tree (Pinus densiflora) which was 2-year old young pine trees (diameter of 5.5 mm or so, and height of about 35 mm).
As a candidate group of an induced resistance material, two kinds of acibenzolar-S-methyl (ASM), TDL (Tiadinil), ITL (Isotianil), PBZ (Probenzole), AZO (Azoxystrobin), VMA (Validamycin A), MeJA (Methyl jasmonate), BABA (DL-3-aminobutyric acid), 2,3-BDO (2,3-Butanediol), SA (salicyclic acid), GABA (r-Aminobutyric acid), glucan (Glucan), ER (Ergosterol), and AZA (Azelaic acid) were used. Only the use of acibenzolar-S-methyl is according to the invention. Injection of the chemicals was carried out by trunk injection method, i.e., at an angle of 45°, a borehole was created by using an electric drill with thickness of 1.5 mm on a pine stem part that is 5 to 10 cm above the soil surface, a tip (200 µℓ) was inserted to the hole, and, after dissolving the candidate material at concentration level of 200, 20, or 2 µg/mℓ in each solvent, the solution was injected in an amount of 100 µℓ per pine tree. After the injection of the chemical agent, the end part of the tip was sealed with parafilm.
The pine tree wilt nematodes (Bursaphelenchus xylophilus, National Institute of Forest Science (NIFoS), South Korea) was incubated at 25°C by feeding them with Botrytis cinerea, which have been cultured on a potato dextrose agar (PDA) medium, and after one week incubation, they were collected by Baermann funnel method and were adjusted to the level of 20,000 worms/mℓ by examining the number of the worms under an optical microscope. One week after the chemical treatment, the inoculation of the pine tree wilt nematodes was carried out by tree barking inoculation of 100 µℓ, i.e., 2,000 worms, per tree, and the result was determined 30 days after the inoculation. […] [Table 1] Occurrence rate of pine wilt disease in candidate group of induced resistance materials

Assay [2] relates to Bursaphelenchus xylophilus. Put plainly: In vitro nematicidal activity, 96-well microplate. The note with it: after 3 days. As to the method:
To test the nematicidal activity of acibenzolar-S-methyl, a suspension of Bursaphelenchus xylophilus was diluted in a 96-well microplate to have 50 worms/99 µℓ in each well and used for the treatment. […] Each treatment was repeated 3 times, and "A Pharm" (emamectin benzoate, 2.15%), which is a chemical pesticide, was used as a control group. After the treatment, the 96-well plate was kept in a plastic box having water-soaked wipes spread on the bottom to maintain 100% humidity, and, after covering the box with black cloth, the box was stored in a dark state with blockage of light. The observation was made after 3 days. […] [Table 2] Nematicidal activity of acibenzolar-S-methyl against Bursaphelenchus xylophilus

Assay [3] concerns Bursaphelenchus xylophilus. The experiment in a line: Control efficacy against pine wilt disease by trunk injection, foliar spraying or soil drenching, greenhouse, red pine trees. The format is in vivo. The note with it: red pine tree, observed for 80 days. As to the method: The control efficacy of acibenzolar-S-methyl, which shown to have the highest activity in Example 1, was determined by three different treatment methods, i.e., trunk injection, foliar spraying, and soil drenching. For in vivo pathogenesis test, 2-year old young red pine trees (diameter of 5.5 mm or so, and height of about 35 mm) were used like Example 2.
For the trunk injection, a borehole was created at an angle of 45° by using an electric drill with thickness of 1.5 mm on a pine stem part that is 5 to 10 cm above the soil surface, a tip (200 µℓ) was inserted to the hole, and the working solution of chemicals was injected in an amount of 100 µℓ per pine tree after dissolving acibenzolar-S-methyl at concentration of 0.2 or 10 mg/mℓ in an aqueous solution containing 10% acetone and 10% methanol. After the treatment, the end part of the tip was sealed with parafilm, and a small hole was created thereon as an airflow hole. For the foliar spraying, a pre-treatment with Tween 20 (250 µg/mℓ) was carried out at 5 mℓ per pine tree to help the adsorption of the chemical on pine leaves, followed by drying for 2 hours. After drying, acibenzolar-S-methyl was dissolved at concentration of 1.6 mg/mℓ in an aqueous solution containing 10% acetone and Tween 20 (250 µg/mℓ) and the dissolved solution was filled in microsprayer and was applied 5 mℓ per pine tree by foliar spraying. For the soil drenching, acibenzolar-S-methyl was dissolved at concentration level of 0.2 mg/mℓ in an aqueous solution containing 10% acetone and Tween 20 (250 µg/mℓ), and this solution was used for soil drenching in a pot with planted pine tree, 40 mℓ per pine tree. […] [Table 3] The control efficacy of acibenzolar-S-methyl against pine wilt disease by various treatment methods

Assay [4] deals with Bursaphelenchus xylophilus. The assay is described as above. Conditions: red pine tree, Trunk injection, 20,000 µg/mℓ, observed for 80 days. The format is in vivo.
[5] abbreviates: Foliar spraying, 1,600 µg/mℓ, 5 mℓ per tree.
Setting [6] is: Soil drenching, 200 µg/mℓ, 40 mℓ per tree.

Consider `O=C(O)c1ccccc1O` [SA, salicyclic acid], for which the “Occurrence rate of pine wilt disease: Number of pine trees showing wilt symptoms / Number of pine trees used for the test” value in assay [1] (2 µg/mℓ) is on record as 2/3; in assay [1] (20 µg/mℓ) it was 1/3; in assay [1] (200 µg/mℓ), 0/3.
Regarding emamectin benzoate, the entries for the “Nematicidal rate (%)” value in assay [2] (0.11 µg/mℓ), in assay [2] (0.33 µg/mℓ) and in assay [2] (1 µg/mℓ) were 98.77%, 100% and 100%, respectively. The “Control value (%)” value in assay [3] (setting [5]) is given as 10%; in assay [3] (Foliar spraying, 1,600 µg/mℓ, 5 mℓ per tree, listed as emamectin benzoate), “no control activity”; in assay [3] (setting [6]), 1%; in assay [3] (Soil drenching, 200 µg/mℓ, 40 mℓ per tree, listed as emamectin benzoate) it was “no control activity”; in assay [3] (Trunk injection, 200 µg/mℓ), 7%; in assay [3] (Trunk injection, 200 µg/mℓ, listed as emamectin benzoate), “not shown at all”. Further, the “Control value (%)” value in assay [4] came out at 100%. Moreover, the “Disease occurrence rate (%)” value in assay [3] (setting [5]) is 64%; in assay [3] (setting [6]), 70%; in assay [3] (Trunk injection, 200 µg/mℓ) it was 66%; in assay [4] it was 0%.
